This is an account of results in ChEMBL document CHEMBL1201862, “PubChem BioAssay data set” (2004).

Test systems include OVCAR-8; T47D; NCI/ADR-RES; TK-10; HCT-15; SNB-19; RXF 393; HL-60; MCF7; K562; RPMI-8226; HCC 2998; SK-MEL-28; U-251; HT-29; SF-268; IGROV-1; ACHN.
Experiment in all cases: growth of human tumour cells (NCI), 48 h

Molecules are shown by their SMILES. Where a name gives a salt, the structure may show the parent alone.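 A five-concentration, 48-hour dose response in 96-well plates underlies each endpoint, interpolated linearly between surrounding concentrations. Abbreviation: GI50, concentration required for 50% inhibition of growth.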 Active and inactive are the calls of the source. Rule as the data show it: active = GI50 up to about 1.1 µM and inactive = higher.

`Cc1c(S(=O)(=O)c2ccccc2)c(N)n(CCN(C)C)c1C`: the GI50 in the test on OVCAR-8 is > 100 µM (inactive); in the test with T47D it was > 100 µM (inactive); with NCI/ADR-RES, > 100 µM (inactive); in the test with TK-10, > 100 µM (inactive); in the test with HCT-15, > 100 µM; in the test on SNB-19 it was > 100 µM (inactive). Moreover, the GI50 is > 100 µM (inactive) in the test on RXF 393; > 100 µM (inactive) in the test with HL-60; > 100 µM (inactive) in the test on MCF7; > 100 µM (inactive) in the test with K562; > 100 µM (inactive) in the test on RPMI-8226; 75 µM (inactive) in the test on HCC 2998. The GI50 in the test on SK-MEL-28, with U-251, in the test with HT-29, with SF-268, with IGROV-1 and with ACHN was > 100 µM (inactive) in each case.
Take `CC(NNC(=O)c1cc[n+]([BH2-]C#N)cc1)c1ccc(Cl)cc1Cl` (stereo unspecified): the GI50 in the test on OVCAR-8 is 31.5 µM (inactive); in the test on T47D, 34.5 µM (inactive); with NCI/ADR-RES it was 31.6 µM (inactive); in the test with TK-10 it was 48.6 µM (inactive); with HCT-15 it was 44.8 µM; in the test on SNB-19, 41.4 µM (inactive). Also, the GI50 with RXF 393 is 43.3 µM (inactive); in the test with HL-60 it was 23.8 µM (inactive); in the test on MCF7, 36 µM (inactive); in the test with K562, 24.2 µM (inactive); in the test with RPMI-8226 it was 17.6 µM (inactive); in the test on HCC 2998, 57.1 µM (inactive). The GI50 is 44.5 µM (inactive) in the test with SK-MEL-28; 48.2 µM (inactive) in the test on U-251; 41.2 µM (inactive) with SF-268; 51.8 µM (inactive) with IGROV-1; 42.7 µM (inactive) in the test with ACHN.
As for `CCCCOC(=O)CC(CC(=O)OCCCC)(OC(C)=O)C(=O)OCCCC` [ACETYLTRIBUTYL CITRATE], the GI50 is > 190 µM (inactive) in the test on OVCAR-8; 48.4 µM (inactive) with T47D; 91.6 µM (inactive) in the test with NCI/ADR-RES; > 200 µM (inactive) in the test with TK-10; > 177 µM in the test with HCT-15; > 200 µM (inactive) with SNB-19. For the same compound, the GI50 is 1.1 µM (active) in the test on RXF 393; 27.8 µM (inactive) in the test with HL-60; 39.1 µM (inactive) with MCF7; 29.6 µM (inactive) in the test with K562; 16 µM (inactive) with RPMI-8226; > 200 µM (inactive) in the test on HCC 2998. Moreover, the GI50 with SK-MEL-28 was > 157 µM (inactive); with U-251, > 200 µM (inactive); in the test with HT-29, 60.8 µM (inactive); with SF-268, > 200 µM (inactive); in the test with IGROV-1, > 200 µM (inactive); with ACHN it was > 200 µM (inactive).
Regarding `CN(C)/N=N/c1ccc(NC=O)cc1`, the GI50 in the test on OVCAR-8 is > 100 µM (inactive); in the test with T47D, 39.6 µM (inactive); in the test on NCI/ADR-RES, > 100 µM (inactive); in the test on TK-10 it was > 100 µM (inactive); in the test on HCT-15, > 100 µM; in the test on SNB-19, > 100 µM (inactive). Moreover, the GI50 in the test on RXF 393 is > 100 µM (inactive); in the test with HL-60 it was 51.9 µM (inactive); with MCF7, > 100 µM (inactive); in the test on K562, 43.3 µM (inactive); in the test with RPMI-8226, 69 µM (inactive); in the test with HCC 2998 it was > 100 µM (inactive). The GI50 in the test with SK-MEL-28 is > 100 µM (inactive); in the test on U-251, > 100 µM (inactive); in the test on HT-29 it was > 100 µM (inactive); with SF-268, 0.456 µM (active); with IGROV-1, > 100 µM (inactive); in the test with ACHN, > 100 µM (inactive).
Turning to `O=C(Cc1ccccc1)Nc1nc2ccc(Cl)cc2c2nc(-c3ccco3)nn12`, the GI50 was > 57.9 µM (inactive) in the test on OVCAR-8; > 100 µM (inactive) with T47D; > 41.2 µM (inactive) in the test with NCI/ADR-RES; > 35.1 µM (inactive) in the test with TK-10; > 100 µM in the test with HCT-15; > 35.7 µM (inactive) with SNB-19. Moreover, the GI50 was 17.7 µM (inactive) with RXF 393; > 100 µM (inactive) with HL-60; 4.46 µM (inactive) with MCF7; > 100 µM (inactive) in the test with K562; > 100 µM (inactive) with RPMI-8226; > 100 µM (inactive) in the test with HCC 2998. For the same compound, the GI50 with SK-MEL-28 is > 100 µM (inactive); with U-251, 16.8 µM (inactive); in the test on HT-29, > 100 µM (inactive); in the test with SF-268, > 62.8 µM (inactive); with IGROV-1, > 21.6 µM (inactive); in the test with ACHN it was 5.02 µM (inactive).
Take `CCOC(=O)/C(SC#N)=C(/N)N1CCCC1`: the GI50 in the test on OVCAR-8 is > 100 µM (inactive); with T47D it was > 100 µM (inactive); in the test on NCI/ADR-RES, > 100 µM (inactive); in the test with TK-10, > 100 µM (inactive); in the test on HCT-15 it was > 100 µM; with SNB-19, > 100 µM (inactive). For the same compound, the GI50 in the test on RXF 393, in the test on HL-60, in the test with MCF7, with K562, with RPMI-8226 and in the test with HCC 2998 was > 100 µM (inactive) in each case. The GI50 in the test on SK-MEL-28, with U-251, in the test with HT-29, in the test with SF-268, in the test on IGROV-1 and in the test on ACHN was > 100 µM (inactive) each time.
With `Cn1c(=O)c2nc3c(=O)n(C)c(=O)n(CC(N)=O)c3nc2n(C)c1=O`, the GI50 in the test on OVCAR-8 is > 100 µM (inactive); in the test on T47D it was > 100 µM (inactive); with NCI/ADR-RES, > 100 µM (inactive); with TK-10 it was > 100 µM (inactive); in the test with HCT-15, > 100 µM; in the test with SNB-19, > 100 µM (inactive). For the same compound, the GI50 in the test with RXF 393, in the test on HL-60, in the test on MCF7, with K562, in the test on RPMI-8226 and in the test with HCC 2998 was > 100 µM (inactive) each time. Besides, the GI50 in the test on SK-MEL-28, in the test with U-251, in the test with HT-29, in the test with SF-268, with IGROV-1 and in the test on ACHN was > 100 µM (inactive) throughout.
On to `Clc1ccc(OCc2nnc3sc(-c4ccc(-c5ccc(Cl)cc5Cl)o4)nn23)c(Cl)c1`, for which the GI50 was 17.9 µM (inactive) in the test with OVCAR-8; 19.5 µM (inactive) in the test on T47D; 20 µM (inactive) in the test with NCI/ADR-RES; 19.5 µM (inactive) in the test on TK-10; 20.7 µM in the test with HCT-15; 22.1 µM (inactive) in the test on SNB-19. The GI50 in the test with RXF 393 was 14.8 µM (inactive); in the test with HL-60 it was 28.2 µM (inactive); in the test with MCF7, 31.6 µM (inactive); in the test on K562, 24.1 µM (inactive); with RPMI-8226, 24.2 µM (inactive); with HCC 2998, 17.9 µM (inactive). For the same compound, the GI50 is 23.8 µM (inactive) with SK-MEL-28; 19.8 µM (inactive) with U-251; 22.7 µM (inactive) in the test on HT-29; 15.6 µM (inactive) in the test with SF-268; 17.8 µM (inactive) with IGROV-1; 20 µM (inactive) in the test on ACHN.
Regarding `Oc1ccc(C(=C(Br)c2ccccc2)c2ccc(O)cc2)cc1`, the GI50 was 6.58 µM (inactive) in the test with OVCAR-8; 10.7 µM (inactive) in the test with T47D; 3.32 µM (inactive) in the test on NCI/ADR-RES; 13.8 µM (inactive) in the test with TK-10; 3.72 µM with HCT-15; 5.15 µM (inactive) with SNB-19. Also, the GI50 was 12.1 µM (inactive) in the test with RXF 393; 3.39 µM (inactive) in the test with HL-60; 3.13 µM (inactive) in the test on MCF7; 2.78 µM (inactive) in the test with K562; 4.66 µM (inactive) in the test with RPMI-8226; 8.65 µM (inactive) in the test on HCC 2998. The GI50 in the test on SK-MEL-28 is 10.4 µM (inactive); in the test with U-251, 4.51 µM (inactive); with HT-29 it was 1.91 µM (inactive); in the test on SF-268, 4.9 µM (inactive); in the test with IGROV-1, 4.45 µM (inactive); in the test with ACHN, 9.16 µM (inactive).
With `CC(C)=CCc1c(O)c(CC2=C(O)C(CC=C(C)C)(C(=O)C(C)C)C(O)=C(C)C2=O)c(O)c(C(=O)C(C)C)c1O` (stereo unspecified), the GI50 with OVCAR-8 is 12 µM (inactive); in the test on T47D it was 8.45 µM (inactive); in the test on NCI/ADR-RES, 10.6 µM (inactive); in the test on TK-10, 13.2 µM (inactive); in the test with HCT-15, 11.7 µM; in the test with SNB-19, 7.73 µM (inactive). In addition, the GI50 was 12.1 µM (inactive) with RXF 393; 39 µM (inactive) with HL-60; 11.7 µM (inactive) in the test with MCF7; 8.61 µM (inactive) with K562; 6.46 µM (inactive) with RPMI-8226; 7.8 µM (inactive) in the test with HCC 2998. Further, the GI50 with SK-MEL-28 is 13.2 µM (inactive); with U-251, 12.4 µM (inactive); in the test with HT-29 it was 3.88 µM (inactive); in the test with SF-268 it was 9.86 µM (inactive); in the test on IGROV-1 it was 10.9 µM (inactive); with ACHN, 11.8 µM (inactive).
Turning to `CC(=O)OCc1ccc(-c2nc(C#N)c(N)o2)o1`, the GI50 is > 10 µM (inactive) in the test with OVCAR-8; > 10 µM (inactive) with T47D; > 10 µM (inactive) in the test on NCI/ADR-RES; > 10 µM (inactive) with TK-10; > 10 µM in the test with HCT-15; > 10 µM (inactive) in the test with SNB-19. Further, the GI50 in the test on RXF 393, in the test on HL-60, with MCF7, in the test with K562, in the test with RPMI-8226 and in the test on HCC 2998 was > 10 µM (inactive) each time. For the same compound, the GI50 with SK-MEL-28, with HT-29, in the test with SF-268, with IGROV-1 and in the test with ACHN was > 10 µM (inactive) throughout.
